Type: physicochemical
Experimental: In another variation of the manufacturing process involving hot-melt extrusion, a mixed/combined composition of the polymer material (often in the form of a powder) and the anti-inflammatory agent is raised to a temperature above the glass transition temperature of the polymer material. The combined composition is then subjected to hot-melt extrusion to form the suture. The temperature during the hot-melt extrusion process preferably remains at or below 140° C. We discovered that tacrolimus begins to degrade at temperatures above this limit. By carrying out the hot-melt extrusion at temperatures at or below 140° C., the process allows for the formation of the suture without causing degradation of the tacrolimus or the polymer material.

## C=CC[C@@H]1/C=C(\C)C[C@H](C)C[C@H](OC)[C@H]2O[C@@](O)(C(=O)C(=O)N3CCCC[C@H]3C(=O)O[C@H](/C(C)=C/[C@@H]3CC[C@@H](O)[C@H](OC)C3)[C@H](C)[C@@H](O)CC1=O)[C@H](C)C[C@@H]2OC [tacrolimus]
  temperature above which tacrolimus begins to degrade: > 140 °C

Source: patent US20240181123A1, “DRUG-ELUTING SUTURE FOR ATTENUATING INFLAMMATION IN WOUNDS” (University of Utah Research Foundation, priority 2022, published 2024)
